Results: patent publication US20090012144A1 (priority 2000, published 2009)
Like-named read-outs stand apart in the source and are kept apart here. Each block holds one compound with its values, some of them ahead of it.

How the values were obtained:
Spodoptera exigua = Spodoptera exigua test (cabbage leaves, dip); assay type: in vivo
Method: (§1) [table] To produce a suitable preparation of active compound, 1 part by weight of active compound is mixed with the stated amounts of solvent and emulsifier, and the concentrate is diluted with emulsifier-containing water to the desired concentration. Cabbage leaves (Brassica oleracea) are treated by being dipped into the preparation of active compound of the desired concentration and are populated with caterpillars of the army worm (Spodoptera exigua) while the leaves are still moist. After the desired period of time, the kill in % is determined. 100% means that all caterpillars have been killed; 0% means that none of the caterpillars have been killed.

[1] = log P determination by HPLC (reversed-phase C 18), EEC Directive 79/831 Annex V.A8; assay type: physicochemical
Method: The log P values given in the tables and Preparation Examples above are determined in accordance with EEC Directive 79/831 Annex V.A8 by HPLC (High Performance Liquid Chromatography) using a reversed-phase column (C 18). Temperature: 43° C. […]
Calibration was carried out using unbranched alkan-2-ones (having 3 to 16 carbon atoms) with known log P values (determination of the log P values by the retention times using linear interpolation between two successive […]).

Plutella xylostella = assay: Plutella test (cabbage leaves, dip); assay type: in vivo
Method: as §1, with “diamond back moth (Plutella xylostella)” for “army worm (Spodoptera exigua)”

Spodoptera frugiperda = Spodoptera frugiperda test (cabbage leaves, dip); assay type: in vivo
Method: as §1, with “frugiperda)” for “exigua)”

[2] = reversed-phase C18 HPLC column, pH 2.3, HPLC, pH 2.3, 43° C., read-out: log P (pH 2.3)
[3] = HPLC, pH 2.3, 43° C., read-out: log P (pH 2.3)

Compound: Fc1cccc(F)c1C1=N[C@H](c2ccc(-c3ccc(OC(F)(F)C(F)F)cc3)cc2)CC1
Kill rate in % after 6 d (Spodoptera exigua; 1.6 ppm): 0%

chromatographic logP [1, 2]: 4.08
Compound: Fc1cccc(F)c1C1=N[C@@H](c2ccc(-c3ccc(OC(F)(F)F)cc3)cc2)CC1 [I-3, (2R)-5-(2,6-difluorophenyl)-2-[4′-(trifluoromethoxy)-1,1′-biphenyl-4-yl]-3,4-dihydro-2H-pyrrole]

Compound: Oc1ccc(-c2ccc([C@H]3CCC(c4c(F)cccc4F)=N3)cc2)cc1 [I-9]
chromatographic logP [1, 3]: 1.93

chromatographic logP [1, 2]: 3.92 | chromatographic logP ([1]; reversed-phase C18 HPLC column, pH 2.3, pH not given, read-out: log p/m.p.: log P): 3.92
Compound: O=S(=O)(c1ccc(-c2ccc([C@H]3CCC(c4c(F)cccc4F)=N3)cc2)cc1)C(F)(F)F [I-11, (2R)-5-(2,6-difluorophenyl)-2-{4′-[(trifluoromethyl)sulphonyl]-1,1′-biphenyl-4-yl}-3,4-dihydro-2H-pyrrole]

chromatographic logP [1, 2]: 2.74
Compound: Fc1cccc(F)c1C1=N[C@@H](c2ccc(Br)cc2)CC1 [I-15, (2R)-2-(4-bromophenyl)-5-(2,6-difluorophenyl)-3,4-dihydro-2H-pyrrole]

chromatographic logP [1, 2]: 2.85
Compound: N#Cc1ccc(-c2ccc([C@H]3CCC(c4c(F)cccc4F)=N3)cc2)cc1 [I-17]

chromatographic logP ([1]; reversed-phase C18 HPLC column, pH 7, HPLC, pH 7, read-out: log P (pH 7)): 4.47
Compound: CC1(C)OB(c2ccc([C@H]3CCC(c4c(F)cccc4F)=N3)cc2)OC1(C)C [I-b-1, (2R)-5-(2,6-difluorophenyl)-2-[4-(4,4,5,5-tetramethyl-1,3,2-dioxaborolan-2-yl)phenyl]-3,4-dihydro-2H-pyrrole]

Compound: CC(C)(C)OC(=O)N[C@H](CCC(=O)c1c(F)cccc1F)c1ccc(-c2ccc(OC(F)(F)F)cc2)cc1 [IV-1, tert-butyl (1R)-4-(2,6-difluorophenyl)-4-oxo-1-[4′-(trifluoromethoxy)-1,1′-biphenyl-4-yl]butylcarbamate]
chromatographic logP [1, 3]: 5.18

Compound: CC(C)(C)OC(=O)N[C@H](CCC(=O)c1c(F)cccc1F)c1ccc(Br)cc1 [IV-2, tert-butyl (1R)-1-(4-bromophenyl)-4-(2,6-difluorophenyl)-4-oxobutylcarbamate]
chromatographic logP [1, 3]: 4.22

Compound: CC(C)(C)OC(=O)N[C@H](CCC(=O)c1c(F)cccc1F)c1ccc(-c2ccc(C#N)cc2)cc1 [IV-4]
chromatographic logP [1, 3]: 4.1

chromatographic logP [1, 2]: 4.55
Compound: O=C1CC[C@@]2(c3ccc(-c4ccc(OC(F)(F)F)cc4)cc3)OC[C@H](c3ccccc3)N12 [IX-1, (3S,7aS)-3-Phenyl-7a-[4′-(trifluoromethoxy)-1,1′-biphenyl-4-yl]tetrahydropyrrolo-[2,1-b][1,3]oxazol-5(6H)-one]

log P (pH 2.3) ([1]; HPLC, pH 2.3, 43° C.): log P (pH 2.3) = 3.36 (purity 92.3%)
Compound: O=C1CC[C@@]2(c3ccc(Br)cc3)OC[C@H](c3ccccc3)N12 [IX-2, (3S,7aS)-7a-(4-Bromophenyl)-3-phenyltetrahydropyrrolo[2,1-b][1,3],oxazol-5(6H)-one]

Compound: CC(C)(C)OC(=O)N1C(=O)CC[C@@H]1c1ccc(-c2ccc(OC(F)(F)F)cc2)cc1 [V-1, tert-butyl (5R)-2-oxo-5-[4′-(trifluoromethoxy)-1,1′-biphenyl-4-yl]-1-pyrrolidine carboxylate]
chromatographic logP [1, 3]: 4.32

chromatographic logP [1, 2]: 3.04
Compound: CC(C)(C)OC(=O)N1C(=O)CC[C@@H]1c1ccc(Br)cc1 [V-2, tert-butyl (2R)-2-(4-bromophenyl)-5-oxo-1-pyrrolidinecarboxylate]

chromatographic logP [1, 2]: 3.02
Compound: CC(C)(C)OC(=O)N1C(=O)CC[C@@H]1c1ccc(-c2ccc(C#N)cc2)cc1 [V-4]

chromatographic logP [1, 2]: 2.95
Compound: O=C1CC[C@H](c2ccc(-c3ccc(OC(F)(F)F)cc3)cc2)N1 [VII-1, (5R)-5-[4′-(Trifluoromethoxy)-1,1′-biphenyl-4-yl]-2-pyrrolidinone]

chromatographic logP [1, 2]: 3.54
Compound: O=C1CC[C@H](c2ccc(Br)cc2)N1 [VII-2, (5R)-5-(4-Bromophenyl)-2-pyrrolidinone]

chromatographic logP [1, 2]: 4.01
Compound: COC(=O)CCC(=O)c1ccc(-c2ccc(OC(F)(F)F)cc2)cc1 [VIII-a-1, Methyl-4-oxo-4-[4′-(trifluoromethoxy)-1,1′-biphenyl-4-yl]butanoate]

chromatographic logP [1, 2]: 3.8
Compound: O=C1CC[C@H](c2ccc(-c3ccc(OC(F)(F)F)cc3)cc2)N1[C@H](CO)c1ccccc1 [X-1, (5R)-1-[(1S)-2-Hydroxy-1-phenylethyl]-5-[4′-(trifluoromethoxy)-1,1′-biphenyl-4-yl]-2-pyrrolidinone]

chromatographic logP [1, 2]: 2.58
Compound: O=C1CC[C@H](c2ccc(Br)cc2)N1[C@H](CO)c1ccccc1 [X-2, (5R)-5-(4-Bromophenyl)-1-[(1S)-2-hydroxy-1-phenylethyl]-2-pyrrolidinone]

chromatographic logP [1, 2]: 4.78
Compound: O=C1CC[C@H](c2ccc(-c3ccc(OC(F)(F)F)cc3)cc2)N1[C@H](CCl)c1ccccc1 [XI-1, (5R)-1-[(1S)-2-Chloro-1-phenylethyl]-5-[4′-(trifluoromethoxy)-1,1′-biphenyl-4-yl]-2-pyrrolidinone]

chromatographic logP [1, 2]: 3.61
Compound: O=C1CC[C@H](c2ccc(Br)cc2)N1[C@H](CCl)c1ccccc1 [XI-2, (5R)-5-(4-Bromophenyl)-1-[(1S)-2-chloro-1-phenylethyl]-2-pyrrolidinone]

chromatographic logP [1, 2]: 4.35
Compound: C=C(c1ccccc1)N1C(=O)CC[C@@H]1c1ccc(-c2ccc(OC(F)(F)F)cc2)cc1 [XII-1, (5R)-1-(1-Phenylvinyl)-5-[4′-(trifluoromethoxy)-1,1′-biphenyl-4-yl]-2-pyrrolidinone]

chromatographic logP [1, 2]: 3.18
Compound: C=C(c1ccccc1)N1C(=O)CC[C@@H]1c1ccc(Br)cc1 [XII-2, (5R)-5-(4-Bromophenyl)-1-(1-phenylvinyl)-2-pyrrolidinone]

log P (pH 2.3) ([1]; HPLC, pH 2.3, 43° C.): 3.42 | chromatographic logP [1, 2]: 3.34
Compound: C=CCNC(=O)CCC(=O)c1ccc(-c2ccc(OC(F)(F)F)cc2)cc1 [XV-1, N-Allyl-4-oxo-4-[4′-(trifluoromethoxy)-1,1′-biphenyl-4-yl]butanamide]

chromatographic logP [1, 2]: 2.99
Compound: C=CCNC(=O)CC[C@H](O)c1ccc(-c2ccc(OC(F)(F)F)cc2)cc1 [XVI-1, (4S)—N-Allyl-4-hydroxy-4-[4′-(trifluoromethoxy)-1,1′-biphenyl-4-yl]butanamide]

chromatographic logP [1, 2]: 3.88
Compound: C=CCN1C(=O)CC[C@@H]1c1ccc(-c2ccc(OC(F)(F)F)cc2)cc1 [XVII-1, (5R)-1-Allyl-5-[4′-(trifluoromethoxy)-1,1′-biphenyl-4-yl]-2-pyrrolidinone]

Compound: Fc1cccc(F)c1C1=NC(c2ccc(-c3ccc(OC(F)(F)F)cc3)cc2)CC1 (stereo not shown) [drawing 71]
Kill rate in % after 6 d (Plutella xylostella; 0.01 ppm): 0%

Compound: Fc1cccc(F)c1C1=N[C@@H](c2ccc(-c3ccc(OC(F)(F)F)cc3)cc2)CC1 [drawing 72]
Kill rate in % after 6 d (Plutella xylostella; 0.01 ppm): 100%

Compound: Fc1cccc(F)c1C1=N[C@H](c2ccc(-c3ccc(OC(F)(F)F)cc3)cc2)CC1 [drawing 73]
Kill rate in % after 6 d (Plutella xylostella; 1.6 ppm): 0%

Compound: Fc1cccc(F)c1C1=NC(c2ccc(-c3ccc(SC(F)(F)F)cc3)cc2)CC1 (stereo not shown) [drawing 74]
Kill rate in % after 6 d (Plutella xylostella; 0.0128 ppm): 10%

Compound: Fc1cccc(F)c1C1=N[C@@H](c2ccc(-c3ccc(SC(F)(F)F)cc3)cc2)CC1 [drawing 75]
Kill rate in % after 6 d (Plutella xylostella; 0.0128 ppm): 45%

Compound: Fc1cccc(F)c1C1=N[C@H](c2ccc(-c3ccc(SC(F)(F)F)cc3)cc2)CC1 [drawing 76]
Kill rate in % after 6 d (Plutella xylostella; 1.6 ppm): 5%

Compound: Fc1cccc(F)c1C1=NC(c2ccc(-c3ccc(OC(F)(F)F)cc3)cc2)CC1 (stereo not shown) [drawing 80]
Kill rate in % after 6 d (Spodoptera exigua; 0.04 ppm): 55%

Compound: Fc1cccc(F)c1C1=N[C@@H](c2ccc(-c3ccc(OC(F)(F)F)cc3)cc2)CC1 [drawing 81]
Kill rate in % after 6 d (Spodoptera exigua; 0.04 ppm): 100%

Compound: Fc1cccc(F)c1C1=N[C@H](c2ccc(-c3ccc(OC(F)(F)F)cc3)cc2)CC1 [drawing 82]
Kill rate in % after 6 d (Spodoptera exigua; 8 ppm): 0%

Compound: Fc1cccc(F)c1C1=N[C@@H](c2ccc(-c3ccc(SC(F)(F)F)cc3)cc2)CC1 [drawing 83]
Kill rate in % after 6 d (Spodoptera exigua; 1.6 ppm): 100%

Compound: Fc1cccc(F)c1C1=N[C@H](c2ccc(-c3ccc(SC(F)(F)F)cc3)cc2)CC1 [drawing 84]
Kill rate in % after 6 d (Spodoptera exigua; 1.6 ppm): 0%

Compound: Fc1cccc(F)c1C1=NC(c2ccc(-c3ccc(OC(F)(F)F)cc3)cc2)CC1 (stereo not shown) [drawing 88]
Kill rate in % after 6 d (Spodoptera frugiperda; 0.02 ppm): 25%

Compound: Fc1cccc(F)c1C1=N[C@@H](c2ccc(-c3ccc(OC(F)(F)F)cc3)cc2)CC1 [drawing 89]
Kill rate in % after 6 d (Spodoptera frugiperda; 0.02 ppm): 100%

Compound: Fc1cccc(F)c1C1=N[C@H](c2ccc(-c3ccc(OC(F)(F)F)cc3)cc2)CC1 [drawing 90]
Kill rate in % after 6 d (Spodoptera frugiperda; 8 ppm): 0%

Compound: Fc1cccc(F)c1C1=NC(c2ccc(-c3ccc(SC(F)(F)F)cc3)cc2)CC1 (stereo not shown) [drawing 91]
Kill rate in % after 6 d (Spodoptera frugiperda; 0.0128 ppm): 20%

Compound: Fc1cccc(F)c1C1=N[C@@H](c2ccc(-c3ccc(SC(F)(F)F)cc3)cc2)CC1 [drawing 92]
Kill rate in % after 6 d (Spodoptera frugiperda; 0.0128 ppm): 65%

Compound: Fc1cccc(F)c1C1=N[C@H](c2ccc(-c3ccc(SC(F)(F)F)cc3)cc2)CC1 [drawing 93]
Kill rate in % after 6 d (Spodoptera frugiperda; 1.6 ppm): 10%
